Experimental data published in PubChem BioAssay (NCI).
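48-hour exposure; five concentrations; linearly interpolated endpoints. GI50 is the concentration that inhibits growth by half. TGI: total growth inhibition.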

How the values were obtained:
Assay in all cases: NCI anticancer screen, dose series, 48 h
SK-OV-3 ovarian = tested on: SK-OV-3 ovarian
UO-31 renal = tested on: UO-31 renal
PC-3 prostate = tested on: PC-3 prostate
HS 578T breast = tested on: HS 578T breast
SW-620 colon = tested on: SW-620 colon
RXF 393 renal = tested on: RXF 393 renal
NCI/ADR-RES ovarian = tested on: NCI/ADR-RES ovarian
A549 NSCLC = tested on: A549 NSCLC
TK-10 renal = tested on: TK-10 renal
K-562 leukemia = tested on: K-562 leukemia
MDA-MB-231 breast = tested on: MDA-MB-231 breast
SK-MEL-5 melanoma = tested on: SK-MEL-5 melanoma
MCF7 breast = tested on: MCF7 breast
SR leukemia = tested on: SR leukemia
BT-549 breast = tested on: BT-549 breast
M14 melanoma = tested on: M14 melanoma
RPMI-8226 leukemia = tested on: RPMI-8226 leukemia
HT29 colon = tested on: HT29 colon
HCC-2998 colon = tested on: HCC-2998 colon
NCI-H23 lung = tested on: NCI-H23 lung
DU-145 prostate = tested on: DU-145 prostate
CAKI-1 renal = tested on: CAKI-1 renal
EKVX NSCLC = tested on: EKVX NSCLC
COLO 205 colon = tested on: COLO 205 colon
NCI-H460 lung = tested on: NCI-H460 lung
OVCAR-5 ovarian = tested on: OVCAR-5 ovarian
CCRF-CEM leukemia = tested on: CCRF-CEM leukemia
HOP-92 NSCLC = tested on: HOP-92 NSCLC
OVCAR-4 ovarian = tested on: OVCAR-4 ovarian
U251 CNS = tested on: U251 CNS
HCT-15 colon = tested on: HCT-15 colon
NCI-H226 lung = tested on: NCI-H226 lung
HL-60(TB) leukemia = tested on: HL-60(TB) leukemia
786-0 renal = tested on: 786-0 renal
HOP-62 NSCLC = tested on: HOP-62 NSCLC
T-47D breast = tested on: T-47D breast
SN12C renal = tested on: SN12C renal
A498 renal = tested on: A498 renal
SNB-19 CNS = tested on: SNB-19 CNS
SK-MEL-28 melanoma = tested on: SK-MEL-28 melanoma
SF-539 CNS = tested on: SF-539 CNS
MALME-3M melanoma = tested on: MALME-3M melanoma
IGROV1 ovarian = tested on: IGROV1 ovarian
MDA-MB-435 = tested on: MDA-MB-435
HCT-116 colon = tested on: HCT-116 colon
MOLT-4 leukemia = tested on: MOLT-4 leukemia
OVCAR-8 ovarian = tested on: OVCAR-8 ovarian
SNB-75 CNS = tested on: SNB-75 CNS
SF-268 CNS = tested on: SF-268 CNS
OVCAR-3 ovarian = tested on: OVCAR-3 ovarian
SK-MEL-2 melanoma = tested on: SK-MEL-2 melanoma
NCI-H522 lung = tested on: NCI-H522 lung
UACC-62 melanoma = tested on: UACC-62 melanoma
LOX IMVI melanoma = tested on: LOX IMVI melanoma
KM12 colon = tested on: KM12 colon
SF-295 CNS = tested on: SF-295 CNS
UACC-257 melanoma = tested on: UACC-257 melanoma
MDA-N = tested on: MDA-N

COc1cc(C2=C(c3cn(C)c4ccccc34)COC2=O)cc(OC)c1OC
GI50 (SK-OV-3 ovarian): 269 nM | GI50 (UO-31 renal): 226 nM | TGI (UO-31 renal): 6370 nM | GI50 (PC-3 prostate): 125 nM | TGI (PC-3 prostate): 53800 nM | GI50 (HS 578T breast): 159 nM | TGI (HS 578T breast): 3580 nM | GI50 (SW-620 colon): 44.4 nM | TGI (SW-620 colon): > 100000 nM | GI50 (RXF 393 renal): 133 nM | TGI (RXF 393 renal): 555 nM | GI50 (NCI/ADR-RES ovarian): 46.4 nM | TGI (NCI/ADR-RES ovarian): 2070 nM | GI50 (A549 NSCLC): 100 nM | TGI (A549 NSCLC): > 25600 nM | GI50 (TK-10 renal): 569 nM | TGI (TK-10 renal): 5610 nM | GI50 (K-562 leukemia): 37 nM | TGI (K-562 leukemia): > 100000 nM | GI50 (MDA-MB-231 breast): 340 nM | TGI (MDA-MB-231 breast): > 100000 nM | GI50 (SK-MEL-5 melanoma): 77.3 nM | TGI (SK-MEL-5 melanoma): 1400 nM | GI50 (MCF7 breast): 27.4 nM | TGI (MCF7 breast): > 19800 nM | GI50 (SR leukemia): 21.9 nM | TGI (SR leukemia): > 100000 nM | GI50 (BT-549 breast): 61.5 nM | TGI (BT-549 breast): 4180 nM | GI50 (M14 melanoma): 34.9 nM | TGI (M14 melanoma): 1170 nM | GI50 (RPMI-8226 leukemia): 109 nM | TGI (RPMI-8226 leukemia): 1950 nM | GI50 (HT29 colon): 38.3 nM | GI50 (HCC-2998 colon): 429 nM | TGI (HCC-2998 colon): 5200 nM | GI50 (NCI-H23 lung): 233 nM | TGI (NCI-H23 lung): 3040 nM | GI50 (DU-145 prostate): 211 nM | TGI (DU-145 prostate): > 100000 nM | GI50 (CAKI-1 renal): 53.1 nM | TGI (CAKI-1 renal): 3420 nM | GI50 (EKVX NSCLC): 121 nM | TGI (EKVX NSCLC): 5420 nM | GI50 (COLO 205 colon): 64.8 nM | TGI (COLO 205 colon): 1280 nM | GI50 (NCI-H460 lung): 53.2 nM | TGI (NCI-H460 lung): 1680 nM | GI50 (OVCAR-5 ovarian): 479 nM | TGI (OVCAR-5 ovarian): > 100000 nM | GI50 (CCRF-CEM leukemia): 59.2 nM | TGI (CCRF-CEM leukemia): > 100000 nM | GI50 (HOP-92 NSCLC): 249 nM | TGI (HOP-92 NSCLC): 4910 nM | GI50 (OVCAR-4 ovarian): 1270 nM | TGI (OVCAR-4 ovarian): > 52600 nM | GI50 (U251 CNS): 73.1 nM | TGI (U251 CNS): > 100000 nM | GI50 (HCT-15 colon): 41.6 nM | TGI (HCT-15 colon): 2280 nM | GI50 (NCI-H226 lung): 1100 nM | TGI (NCI-H226 lung): 7300 nM | GI50 (HL-60(TB) leukemia): 42.5 nM | TGI (HL-60(TB) leukemia): 1460 nM | GI50 (786-0 renal): 317 nM | TGI (786-0 renal): > 32800 nM | GI50 (HOP-62 NSCLC): 123 nM | TGI (HOP-62 NSCLC): > 34800 nM | GI50 (T-47D breast): 60.4 nM | TGI (T-47D breast): 8650 nM | GI50 (SN12C renal): 593 nM | TGI (SN12C renal): > 100000 nM | GI50 (A498 renal): 17.1 nM | TGI (A498 renal): 109 nM | GI50 (SNB-19 CNS): 160 nM | TGI (SNB-19 CNS): > 100000 nM | GI50 (SK-MEL-28 melanoma): 754 nM | TGI (SK-MEL-28 melanoma): 29800 nM | GI50 (SF-539 CNS): 106 nM | TGI (SF-539 CNS): 932 nM | GI50 (MALME-3M melanoma): 474 nM | TGI (MALME-3M melanoma): 14700 nM | GI50 (IGROV1 ovarian): 77.1 nM | TGI (IGROV1 ovarian): 21700 nM | GI50 (MDA-MB-435): 24.4 nM | TGI (MDA-MB-435): 87.5 nM | GI50 (HCT-116 colon): 39.6 nM | GI50 (MOLT-4 leukemia): 55 nM | TGI (MOLT-4 leukemia): > 28200 nM | GI50 (OVCAR-8 ovarian): 338 nM | TGI (OVCAR-8 ovarian): > 23600 nM | GI50 (SNB-75 CNS): 43.8 nM | TGI (SNB-75 CNS): 522 nM | GI50 (SF-268 CNS): 802 nM | TGI (SF-268 CNS): 7410 nM | GI50 (OVCAR-3 ovarian): 36.4 nM | TGI (OVCAR-3 ovarian): 437 nM | GI50 (SK-MEL-2 melanoma): 56.2 nM | TGI (SK-MEL-2 melanoma): 18500 nM | GI50 (NCI-H522 lung): 48.5 nM | TGI (NCI-H522 lung): 716 nM

CCOc1ccc(-c2nc(-c3oc4ccccc4c(=O)c3OC(C)=O)cs2)cc1
TGI (SK-OV-3 ovarian): > 10000 nM | TGI (UACC-62 melanoma): > 10000 nM | TGI (PC-3 prostate): > 10000 nM | TGI (LOX IMVI melanoma): > 10000 nM | TGI (SW-620 colon): > 10000 nM | TGI (RXF 393 renal): 7210 nM | TGI (A549 NSCLC): > 10000 nM | TGI (TK-10 renal): > 10000 nM | TGI (K-562 leukemia): > 10000 nM | TGI (MDA-MB-231 breast): > 10000 nM | TGI (SK-MEL-5 melanoma): > 10000 nM | TGI (MCF7 breast): > 10000 nM | TGI (SR leukemia): > 10000 nM | TGI (M14 melanoma): > 10000 nM | TGI (RPMI-8226 leukemia): > 10000 nM | TGI (HT29 colon): > 10000 nM | TGI (HCC-2998 colon): > 10000 nM | TGI (NCI-H23 lung): > 10000 nM | TGI (DU-145 prostate): > 10000 nM | TGI (CAKI-1 renal): > 10000 nM | TGI (EKVX NSCLC): > 10000 nM | TGI (COLO 205 colon): > 10000 nM | TGI (CCRF-CEM leukemia): > 10000 nM | TGI (KM12 colon): > 10000 nM | TGI (HCT-15 colon): > 10000 nM | TGI (HL-60(TB) leukemia): > 10000 nM | TGI (SF-295 CNS): > 10000 nM | TGI (786-0 renal): > 10000 nM | TGI (HOP-62 NSCLC): > 10000 nM | TGI (T-47D breast): > 10000 nM | TGI (SN12C renal): > 10000 nM | TGI (SK-MEL-28 melanoma): > 10000 nM | TGI (UACC-257 melanoma): > 10000 nM | TGI (MALME-3M melanoma): > 10000 nM | TGI (IGROV1 ovarian): > 10000 nM | TGI (MOLT-4 leukemia): > 10000 nM | TGI (OVCAR-8 ovarian): > 10000 nM | TGI (SNB-75 CNS): > 10000 nM | TGI (SF-268 CNS): > 10000 nM | TGI (MDA-N): > 10000 nM
